Values after ≈ are worked out from the molar mass of the structure shown. Read-outs that look alike come from different tables or passages of the source.
Columns and labels:
[1] = test system: ATCC 25922 ECO.35; experiment: MIC, CLSI broth microdilution, Gram-negative clinical isolates; format: cell-based, Escherichia coli; details: Escherichia coli, read-out: Minimum inhibitory concentration (MIC)
Experimental: (§1) Plates were incubated at 35° C. for 24 h.
(§2) The activity of paenibacterin was also tested against clinical isolates of the following Gram-negative bacterial strains: four strains of the species Pseudomonas aeruginosa (PAE), three strains of the species Acinetobacter baumannii (ABA), two strains of the species Escherichia coli (ECO), and four strains of the species Klebsiella pneumoniae (KPN). Particularly, the strains of Gram-negative bacteria included polymyxin B-resistant (PMB-R) and polymyxin B-sensitive (PMB-S) strains of each above listed species. The MICs were determined using the above described CLSI broth microdilution method, in which the method was performed with both non-binding surface coated (NBS) and polystyrene (PS) 96-well plates (Tables 11 and 12, respectively). The MICs were generally lower in the NBS 96-well plates as compared to the PS 96-well plates.

[2] = test system: ECO.2276; experiment: as above; format: cell-based, Escherichia coli; details: Escherichia coli, read-out: Minimum inhibitory concentration (MIC)
Experimental: as §1, §2

[3] = test system: PAE.44; experiment: as above; format: cell-based, Pseudomonas aeruginosa; details: Pseudomonas aeruginosa, non-binding surface coated (NBS) 96-well plates, read-out: Minimum inhibitory concentration (MIC)
Experimental: as §1, §2

[4] = test system: PAE.2281; experiment: as above; format: cell-based, Pseudomonas aeruginosa; details: Pseudomonas aeruginosa, read-out: Minimum inhibitory concentration (MIC)
Experimental: as §1, §2

[5] = test system: PAE.2325; experiment: as above; format: cell-based, Pseudomonas aeruginosa; details: Pseudomonas aeruginosa, read-out: Minimum inhibitory concentration (MIC)
Experimental: as §1, §2

[6] = test system: PAE.999; experiment: as above; format: cell-based, Pseudomonas aeruginosa; details: Pseudomonas aeruginosa, read-out: Minimum inhibitory concentration (MIC)
Experimental: as §1, §2

[7] = test system: KPN.674; experiment: as above; format: cell-based, Klebsiella pneumoniae; details: Klebsiella pneumoniae, read-out: Minimum inhibitory concentration (MIC)
Experimental: as §1, §2

[8] = test system: PMB-R, KPN.2463; experiment: as above; format: cell-based, Klebsiella pneumoniae
Experimental: as §1, §2

[9] = test system: PMB-S, KPN.2461; experiment: as above; format: cell-based, Klebsiella pneumoniae
Experimental: as §1, §2

[10] = test system: KPN.2317; experiment: as above; format: cell-based, Klebsiella pneumoniae; details: for MIC: Klebsiella pneumoniae, read-out: Minimum inhibitory concentration (MIC)
Experimental: as §1, §2

[11] = test system: MSSA ATCC 29213 SAU.42; experiment: microbe, parasite or virus in culture; details: Staphylococcus aureus, ATCC29213|MSSA, read-out: Minimum inhibitory concentration (MIC)
Experimental: (§3) The activity of paenibacterin against several strains of Gram-positive and Gram-negative foodborne pathogens is summarized in Table 10. The data is reported as minimum inhibitory concentrations (MIC) as an average of three replicates for paenibacterin against the various listed bacterial strains. […] MICs were determined according to the CLSI broth microdilution method (see, Clinical and Laboratory Standards Institute (CLSI). 2009. Methods for dilution antimicrobial susceptibility tests for bacteria that grow aerobically; approved standard. […]. CLSI, Wayne, Pa.). Briefly, HPLC-purified paenibacterin was dissolved in methanol and diluted to appropriate concentration with cation-adjusted Mueller-Hinton II broth (Difco). Aliquots (25 μl) of serially-diluted paenibacterin was dispensed into wells of a 96-well plate; an equal amount of 1/10 diluted overnight bacterial culture was added to wells. Plates were incubated at 35° C. for 24 h. Cell growth after incubation was examined and determined using a microtiter plate reader at 600 nm. Concentration of paenibacterin is determined based on a molecular weight of 1604 Da.
(§4) The activity of paenibacterin was further tested against clinical isolates of the following Gram-positive bacteria: methicillin-sensitive Staphylococcus aureus (MSSA), methicillin-resistant S. aureus (MRSA), vancomycin-sensitive Enterococcus faecalis, vancomycin-resistant E. faecalis (VRE), Streptococcus pneumoniae, and laboratory derived daptomycin-resistant (DR) MSSA, MRSA, and VRE strains. The MICs were determined using the above described CLSI broth microdilution method, in which the method was performed with non-binding surface coated (NBS) 96-well plates.

[12] = test system: DS-VRE ATCC 700802 EFS.807; experiment: microbe, parasite or virus in culture; details: Enterococcus faecalis, ATCC700802|VRE, read-out: Minimum inhibitory concentration (MIC)
Experimental: as §3, §4

[13] = test system: WT ATCC 29212 EFS.43; experiment: microbe, parasite or virus in culture; details: Enterococcus faecalis, ATCC29212, read-out: Minimum inhibitory concentration (MIC)
Experimental: as §3, §4

[14] = test system: ABA.2315; experiment: MIC, CLSI broth microdilution, Gram-negative clinical isolates; format: cell-based, Acinetobacter baumannii
Experimental: as §1, §2

[15] = test system: ABA.1570; experiment: as above; format: cell-based, Acinetobacter baumannii; details: Acinetobacter baumannii, read-out: Minimum inhibitory concentration (MIC)
Experimental: as §1, §2

[16] = test system: ABA.2232; experiment: as above; format: cell-based, Acinetobacter baumannii; details: Acinetobacter baumannii, read-out: Minimum inhibitory concentration (MIC)
Experimental: as §1, §2

[17] = test system: DR-VRE from EFS.807 EFS.2731; experiment: microbe, parasite or virus in culture; details: Enterococcus faecalis, VRE, read-out: Minimum inhibitory concentration (MIC)
Experimental: as §3, §4

[18] = test system: DR-MSSA from SAU.42 SAU.278; experiment: microbe, parasite or virus in culture; details: Staphylococcus aureus, MSSA, read-out: Minimum inhibitory concentration (MIC)
Experimental: as §3, §4

[19] = test system: DR-MRSA from MW2 SP SAU.1616; experiment: microbe, parasite or virus in culture; details: Staphylococcus aureus, MRSA, read-out: Minimum inhibitory concentration (MIC)
Experimental: as §3, §4

[20] = test system: WT ATCC 49619 SPN.31; experiment: microbe, parasite or virus in culture; details: Streptococcus pneumoniae, ATCC49619, read-out: Minimum inhibitory concentration (MIC)
Experimental: as §3, §4

[21] = test system: MRSA ATCC 43300 SAU.399; experiment: microbe, parasite or virus in culture; details: Staphylococcus aureus, ATCC43300|MRSA, read-out: Minimum inhibitory concentration (MIC)
Experimental: as §3, §4

C[C@@H](O)[C@H]1C(=O)N2C(C(=O)O)=C(S[C@@H]3CN[C@H](C(=O)N(C)C)C3)[C@H](C)[C@H]12 [meropenem #413, meropenem] gave an MIC ([1]; ATCC25922, ECO.35 (ATCC 25922), NBS 96-well plates) of 0.03 µg/mL (≈ 0.0782 µM), an MIC ([1]; ATCC25922, ECO.35, PS 96-well plates) of 0.016 µg/mL (≈ 0.0417 µM) and an MIC ([2]; NBS 96-well plates) of 0.03 to 0.06 µg/mL (≈ 0.0782 to 0.156 µM). It also gave an MIC ([2]; PS 96-well plates) of 0.03 µg/mL (≈ 0.0782 µM), an MIC [3] of 1 µg/mL (≈ 2.61 µM) and an MIC ([4]; NBS 96-well plates) of 1 to 2 µg/mL (≈ 2.61 to 5.22 µM). It also gave an MIC ([4]; PS 96-well plates) of 0.5 µg/mL (≈ 1.3 µM), an MIC ([5]; NBS 96-well plates) of 2 to 4 µg/mL (≈ 5.22 to 10.4 µM) and an MIC ([5]; PS 96-well plates) of 2 µg/mL (≈ 5.22 µM). The MIC ([6]; NBS 96-well plates) was > 8 µg/mL, the MIC ([6]; PS 96-well plates) was > 8 µg/mL and the MIC ([7]; NBS 96-well plates) was 0.0625 µg/mL (≈ 0.163 µM). The MIC ([7]; PS 96-well plates) was 0.03 µg/mL (≈ 0.0782 µM), the “Minimum inhibitory concentration (MIC)” value ([8]; KPN.2463, PS 96-well plates) was >8 µg/mL and the MIC ([8]; Klebsiella pneumoniae, KPN.2463 (PMB-R), NBS 96-well plates, read-out: Minimum inhibitory concentration (MIC)) was > 8 µg/mL. For the same compound, the “Minimum inhibitory concentration (MIC)” value ([9]; KPN.2461, PS 96-well plates) was >8 µg/mL, the MIC ([9]; Klebsiella pneumoniae, KPN.2461 (PMB-S), NBS 96-well plates, read-out: Minimum inhibitory concentration (MIC)) was > 8 µg/mL and the MIC ([10]; NBS 96-well plates) was 0.0625 µg/mL (≈ 0.163 µM). The MIC ([10]; PS 96-well plates) was 0.03 µg/mL (≈ 0.0782 µM), the “Minimum inhibitory concentration (MIC)” value ([10]; NBS 96-well plates) was 0.06 µg/mL (≈ 0.156 µM) and the MIC [11] was 0.125 µg/mL (≈ 0.326 µM). For the same compound, the MIC [12] was 4 µg/mL (≈ 10.4 µM), the MIC [13] was 2 µg/mL (≈ 5.22 µM) and the MIC ([14]; Acinetobacter baumannii, NBS 96-well plates, read-out: Minimum inhibitory concentration (MIC)) was > 8 µg/mL. The “Minimum inhibitory concentration (MIC)” value ([14]; PS 96-well plates) was >8 µg/mL, the MIC ([15]; NBS 96-well plates) was 8 µg/mL (≈ 20.9 µM) and the MIC ([15]; PS 96-well plates) was > 8 µg/mL. For the same compound, the MIC ([16]; NBS 96-well plates) was 0.125 to 0.25 µg/mL (≈ 0.326 to 0.652 µM) and the MIC ([16]; PS 96-well plates) was 0.5 µg/mL (≈ 1.3 µM).
Compound CN[C@H](CC(C)C)C(=O)N[C@H]1C(=O)N[C@@H](CC(N)=O)C(=O)N[C@H]2C(=O)N[C@H]3C(=O)N[C@H](C(=O)N[C@H](C(=O)O)c4cc(O)cc(O)c4-c4cc3ccc4O)[C@H](O)c3ccc(c(Cl)c3)Oc3cc2cc(c3O[C@@H]2O[C@H](CO)[C@@H](O)[C@H](O)[C@H]2O[C@H]2C[C@](C)(N)[C@H](O)[C@H](C)O2)Oc2ccc(cc2Cl)[C@H]1O [vancomycin] has an MIC [11] of 1 µg/mL (≈ 0.69 µM), an MIC [12] of 16 to 32 µg/mL (≈ 11 to 22.1 µM) and an MIC [13] of 2 to 4 µg/mL (≈ 1.38 to 2.76 µM). For the same compound, the MIC [17] was 32 µg/mL (≈ 22.1 µM), the MIC [18] was 2 µg/mL (≈ 1.38 µM) and the MIC [19] was 2 µg/mL (≈ 1.38 µM). It also gave an MIC [20] of 16 µg/mL (≈ 11 µM) and an MIC [21] of 2 µg/mL (≈ 1.38 µM).
